Test results as given in patent US12178791B2, “Haloallylamine sulfone derivative inhibitors of lysyl oxidases and uses thereof” (Syntara Limited, priority 2018, dated 2024).
Counter-ions that a name gives are not always drawn. Like-named read-outs stand apart in the source and are kept apart here.

Legend:
Assay type in all cases: biochemical
[1] = molecular target: T1, LOXL2 (Homo sapiens (Human), UniProt Q9Y4K0); test: LOXL2 inhibition, Amplex Red oxidation assay; conditions: 30 min preincubation at 37 °C, putrescine substrate
T1 sequence (Q9Y4K0 26-774): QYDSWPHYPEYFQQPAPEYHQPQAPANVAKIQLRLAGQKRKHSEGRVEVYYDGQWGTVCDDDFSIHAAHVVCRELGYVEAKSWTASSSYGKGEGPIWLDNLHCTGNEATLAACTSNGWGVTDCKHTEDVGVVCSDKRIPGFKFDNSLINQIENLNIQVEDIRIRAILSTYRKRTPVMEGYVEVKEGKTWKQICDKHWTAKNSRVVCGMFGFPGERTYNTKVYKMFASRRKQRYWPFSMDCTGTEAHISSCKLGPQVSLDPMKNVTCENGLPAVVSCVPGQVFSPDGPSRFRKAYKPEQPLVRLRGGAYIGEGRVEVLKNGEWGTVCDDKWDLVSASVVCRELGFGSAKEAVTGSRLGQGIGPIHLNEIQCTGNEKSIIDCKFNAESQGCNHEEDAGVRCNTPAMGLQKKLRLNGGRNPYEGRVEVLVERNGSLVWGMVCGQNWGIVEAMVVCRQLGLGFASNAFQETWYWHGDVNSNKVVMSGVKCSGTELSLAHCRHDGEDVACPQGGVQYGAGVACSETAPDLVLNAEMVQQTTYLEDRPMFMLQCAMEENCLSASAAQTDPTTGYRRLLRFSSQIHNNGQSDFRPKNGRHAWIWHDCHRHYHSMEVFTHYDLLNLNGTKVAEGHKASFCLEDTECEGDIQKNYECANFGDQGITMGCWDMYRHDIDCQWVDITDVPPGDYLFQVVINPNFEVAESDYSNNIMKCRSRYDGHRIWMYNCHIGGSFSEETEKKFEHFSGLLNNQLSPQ
How it was run: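 LOXL2 in 1.2 M urea, 50 mM sodium borate pH 8.2 was preincubated with compound (11-point curve) for 30 min at 37 °C; mofegiline/pargyline were added only for non-purified enzyme. Reaction mix held 2× KM putrescine (10 mM), 120 μM Amplex Red and 1.5 U/mL HRP. H2O2 fluorescence (ex 565/em 590 nm) was read over 30 min, and IC50 came from slopes.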

[2] = molecular target: T1, LOXL2; test: Jump dilution experiment, sustained inhibition of LOXL2; conditions: jump dilution after 40 min at 37 °C with 10× or 30× IC50; vs non-inhibited controls;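 note: 30× IC50 used only where needed so inhibitor exceeds enzyme concentration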
Description: Jump Dilution experiment: The assay was developed using a 96 well format and the starting enzyme concentration was set 100 times higher than for the inhibition studies. […] After the incubation, the mixture was diluted 50× in assay buffer, followed by a further 2× dilution in Amplex Red-horseradish peroxidase-putrescine reaction mix (same as per the inhibition studies) prior to the fluorescent measurement. Results were expressed in % recovery of the signal after a specified time by comparison with non-inhibited controls.

[3] = molecular target: Human recombinant SSAO/VAP-1 (Homo sapiens (Human), UniProt Q16853); test: Inhibition of human recombinant SSAO/VAP-1
Sequence of Human recombinant SSAO/VAP-1 (Q16853 34-763): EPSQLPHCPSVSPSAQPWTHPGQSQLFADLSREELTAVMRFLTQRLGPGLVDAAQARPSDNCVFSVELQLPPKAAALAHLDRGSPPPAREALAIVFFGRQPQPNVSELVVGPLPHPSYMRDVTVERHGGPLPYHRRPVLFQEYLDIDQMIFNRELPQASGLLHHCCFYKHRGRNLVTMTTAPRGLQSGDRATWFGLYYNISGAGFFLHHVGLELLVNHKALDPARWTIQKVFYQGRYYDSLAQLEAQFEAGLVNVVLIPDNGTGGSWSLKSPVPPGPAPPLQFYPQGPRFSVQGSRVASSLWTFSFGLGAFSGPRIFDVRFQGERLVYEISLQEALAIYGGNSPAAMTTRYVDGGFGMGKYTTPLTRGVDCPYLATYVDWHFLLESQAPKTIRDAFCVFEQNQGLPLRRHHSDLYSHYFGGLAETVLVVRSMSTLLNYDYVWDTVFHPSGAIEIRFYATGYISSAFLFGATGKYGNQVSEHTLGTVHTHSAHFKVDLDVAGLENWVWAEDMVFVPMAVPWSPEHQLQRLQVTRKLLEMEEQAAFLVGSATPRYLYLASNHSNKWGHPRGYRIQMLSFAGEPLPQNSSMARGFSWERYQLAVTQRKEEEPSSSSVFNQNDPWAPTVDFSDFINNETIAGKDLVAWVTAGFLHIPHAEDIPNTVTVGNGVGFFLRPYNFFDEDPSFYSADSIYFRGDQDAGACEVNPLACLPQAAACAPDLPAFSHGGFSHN
How it was run: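 Purified enzyme (residues 34-763, expressed in CHO Lec8 cells; 0.25 μg/mL in 0.1 M sodium phosphate pH 7.4) was preincubated with compound 30 min at 37 °C. An added mix held 600 μM benzylamine, 120 μM Amplex Red and 1.5 U/mL HRP. Fluorescence (ex 565/em 590 nm) was read every 2.5 min for 30 min at 37 °C, and IC50 was derived from kinetic slopes over 4-11-point curves.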

[4] = molecular target: Recombinant human MAO-B (Homo sapiens (Human), UniProt P27338); test: Inhibition of human recombinant MAO-B; conditions: benzylamine 100 μM
Sequence of Recombinant human MAO-B (P27338 whole entry): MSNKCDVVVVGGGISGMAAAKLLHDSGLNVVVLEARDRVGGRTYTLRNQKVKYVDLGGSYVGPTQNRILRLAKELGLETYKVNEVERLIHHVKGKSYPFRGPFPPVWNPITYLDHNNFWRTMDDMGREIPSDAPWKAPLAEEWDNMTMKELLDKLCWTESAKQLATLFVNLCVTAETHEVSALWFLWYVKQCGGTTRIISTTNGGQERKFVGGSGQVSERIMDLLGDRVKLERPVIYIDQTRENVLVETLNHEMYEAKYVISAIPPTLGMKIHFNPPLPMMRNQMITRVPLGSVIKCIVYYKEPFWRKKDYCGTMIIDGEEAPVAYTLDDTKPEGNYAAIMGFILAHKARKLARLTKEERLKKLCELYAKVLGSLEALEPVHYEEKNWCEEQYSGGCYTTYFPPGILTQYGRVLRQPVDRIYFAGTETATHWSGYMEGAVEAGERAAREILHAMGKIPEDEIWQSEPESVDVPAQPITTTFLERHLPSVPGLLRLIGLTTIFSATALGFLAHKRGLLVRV
Description: The specificity of the compounds of this invention was tested by determining their ability to inhibit MAO-B activities in vitro. Recombinant human MAO-B (0.06 mg/mL; Sigma Aldrich) was used as source of MAO-B enzyme activities. The assay was performed in a similar way as for human SSAO/VAP-1 (Example 28) except, the substrate benzylamine was used at 100 μM.

[5] = 30 min preincubation at 37 °C, benzylamine 600 μM, read-out: SSAO/VAP-1 Activity IC50

Structure (SMILES) | IC50 [1] | LOXL2 - Recovery of activity. (%) [2] | IC50 [3, 5] | IC50 ([3]; second Table 6 (Example 38), read-out: Recombinant human SSAO (rhSSAO) inhibition (IC50)) | IC50 [4]
NC/C=C(\F)CS(=O)(=O)c1ccccc1 [Compound 1, (Z)-3-fluoro-4-(phenylsulfonyl)but-2-en-1-amine hydrochloride] | < 10 µM | 9.5% | > 30 µM | > 100 µM | > 30 µM
NC/C=C(\F)CS(=O)(=O)c1cccc2cccnc12 [Compound 33, (Z)-3-fluoro-4-(quinolin-8-ylsulfonyl)but-2-en-1-amine dihydrochloride] | < 1 µM | 6.9% | > 10 µM |  | > 30 µM
